Holding throughout (type): cell-based
For assay [1], the target named is T1, Ms5HT1B receptor (Manduca sexta, UniProt Q0GMY1).
T1 construct: gene 5HT1B
T1 sequence (Q0GMY1 1-448): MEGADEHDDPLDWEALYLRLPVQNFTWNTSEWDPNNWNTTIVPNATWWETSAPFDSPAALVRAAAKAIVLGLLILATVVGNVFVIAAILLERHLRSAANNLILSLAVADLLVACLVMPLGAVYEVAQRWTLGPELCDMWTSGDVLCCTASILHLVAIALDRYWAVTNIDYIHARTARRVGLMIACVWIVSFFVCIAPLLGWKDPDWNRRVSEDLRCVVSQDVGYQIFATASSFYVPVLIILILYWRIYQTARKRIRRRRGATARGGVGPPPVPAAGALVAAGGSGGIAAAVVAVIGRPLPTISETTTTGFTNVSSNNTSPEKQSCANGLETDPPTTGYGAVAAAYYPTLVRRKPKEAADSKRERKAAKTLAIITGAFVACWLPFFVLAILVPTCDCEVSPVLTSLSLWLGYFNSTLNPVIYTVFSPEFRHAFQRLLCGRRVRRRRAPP
The assay is described as follows: two-electrode voltage clamp, Xenopus oocytes, endogenous calcium-dependent chloride current. A general note: Two-electrode voltage clamp holds a large cell at a set potential and records current.

Assay [2] deals with T2, Ms5HT7 receptor (Manduca sexta, UniProt S4UQW2).
T2 construct: gene 5HT7; Xenopus oocytes (pBS-MXT, receptor cRNA alone)
T2 sequence (S4UQW2 38-563): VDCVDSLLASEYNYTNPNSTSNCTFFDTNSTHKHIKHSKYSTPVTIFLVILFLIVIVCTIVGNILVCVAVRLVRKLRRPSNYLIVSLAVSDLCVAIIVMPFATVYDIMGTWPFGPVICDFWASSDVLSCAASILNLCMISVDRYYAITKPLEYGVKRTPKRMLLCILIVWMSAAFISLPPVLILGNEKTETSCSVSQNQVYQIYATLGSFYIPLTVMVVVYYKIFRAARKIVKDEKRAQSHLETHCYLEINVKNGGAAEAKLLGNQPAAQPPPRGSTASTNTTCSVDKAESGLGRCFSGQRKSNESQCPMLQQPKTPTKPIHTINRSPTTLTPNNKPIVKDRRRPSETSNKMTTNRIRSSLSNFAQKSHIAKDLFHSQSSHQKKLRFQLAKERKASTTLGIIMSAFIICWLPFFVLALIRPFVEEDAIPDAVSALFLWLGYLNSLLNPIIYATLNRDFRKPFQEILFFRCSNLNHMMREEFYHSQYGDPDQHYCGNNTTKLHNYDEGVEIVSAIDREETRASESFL
Described as above.

In assay [3] the target is T3, Ms5HT2 receptor (Manduca sexta, UniProt S4USL2).
T3 construct: gene 5HT2
T3 sequence (S4USL2 1-635): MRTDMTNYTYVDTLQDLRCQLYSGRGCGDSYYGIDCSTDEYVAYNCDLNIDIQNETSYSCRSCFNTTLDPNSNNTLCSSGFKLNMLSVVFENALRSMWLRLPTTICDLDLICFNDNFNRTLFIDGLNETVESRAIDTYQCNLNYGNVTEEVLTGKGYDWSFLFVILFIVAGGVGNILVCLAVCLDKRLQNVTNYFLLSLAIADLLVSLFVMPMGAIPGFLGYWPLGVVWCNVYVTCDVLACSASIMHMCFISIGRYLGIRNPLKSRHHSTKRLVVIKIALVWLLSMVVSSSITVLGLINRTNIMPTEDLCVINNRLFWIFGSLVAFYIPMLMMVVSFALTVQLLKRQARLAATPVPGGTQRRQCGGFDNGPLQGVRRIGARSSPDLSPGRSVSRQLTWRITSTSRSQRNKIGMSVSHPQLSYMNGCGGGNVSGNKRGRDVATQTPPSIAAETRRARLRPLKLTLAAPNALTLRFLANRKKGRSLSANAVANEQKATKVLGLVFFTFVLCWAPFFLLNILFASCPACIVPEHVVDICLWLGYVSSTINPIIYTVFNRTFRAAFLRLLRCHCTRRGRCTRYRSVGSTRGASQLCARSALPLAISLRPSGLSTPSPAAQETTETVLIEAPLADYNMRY
The description is as above.

For assay [4], the target named is T1, Ms5HT1B receptor. The assay is described as follows: two-electrode voltage clamp, Xenopus oocytes, endogenous chloride current. The note with it: for activity at 3 µM: read-out: 5HT1B receptor. From the text: two-electrode voltage clamp, Xenopus oocytes, endogenous chloride current on Ms5HT1B receptor
Assay [5] concerns the target T2, Ms5HT7 receptor. The assay is described as above. The note with it: 3 µM; partial agonist; relative to 1 µM 5-HT. From the text:
two-electrode voltage clamp, Xenopus oocytes, endogenous chloride current on Ms5HT7 receptor

Assay [6] concerns the target T4, Ms5HT1A receptor (Manduca sexta, UniProt Q0GMY2).
T4 construct: gene 5HT1A; about 51 kDa
T4 sequence (Q0GMY2 1-463): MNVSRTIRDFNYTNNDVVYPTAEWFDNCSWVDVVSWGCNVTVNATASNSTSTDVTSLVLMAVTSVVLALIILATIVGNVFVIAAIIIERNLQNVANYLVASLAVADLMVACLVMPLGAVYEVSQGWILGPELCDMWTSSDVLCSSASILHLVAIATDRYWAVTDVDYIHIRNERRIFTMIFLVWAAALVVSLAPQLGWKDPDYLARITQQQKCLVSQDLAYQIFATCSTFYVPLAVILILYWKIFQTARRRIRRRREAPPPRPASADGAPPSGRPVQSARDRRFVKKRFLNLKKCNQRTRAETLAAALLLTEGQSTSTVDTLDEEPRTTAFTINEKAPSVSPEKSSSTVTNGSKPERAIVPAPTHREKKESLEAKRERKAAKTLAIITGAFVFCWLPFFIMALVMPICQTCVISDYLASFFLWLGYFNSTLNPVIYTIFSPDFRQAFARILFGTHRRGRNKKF
Briefly: two-electrode voltage clamp, Xenopus oocytes, CFTR current. The note with it: read-out: 5HT1A receptor. An excerpt:
two-electrode voltage clamp, Xenopus oocytes, CFTR current on Ms5HT1A receptor

The text below walks through data of article PMC3726668, “A Characterization of the Manduca sexta Serotonin Receptors in the Context of Olfactory Neuromodulation” (PLoS ONE, 2013).

The term EC50 denotes the concentration that produces a half-maximal response.

On to `NCCc1c[nH]c2ccc(O)cc12` [serotonin], for which the results for the EC50 in assay [1], in assay [2] and in assay [3] were 57 nM, 10.5 nM and 25.4 nM, respectively.
For `CSc1ccc2c(c1)C(N1CCN(C)CC1)Cc1ccccc1S2` (centres unmarked) [methiothepin], the activity at 3 µM in assay [4] was found to be 36.4 ± 12.6%.
In assay [5], `CC[C@@H](CO)NC(=O)[C@@H]1C=C2c3cccc4c3c(cn4C)C[C@H]2N(C)C1` [methysergide] came in with a Ms5HT7 of 49.5 ± 12%.
In the case of `COc1ccccc1N1CCN(CCN(C(=O)C2CCCCC2)c2ccccn2)CC1` [WAY100635], the activity at 3 µM in assay [4] was 38.2 ± 3.3%; in assay [6] it was 76.8 ± 15.8%.
As to `COc1ccc2[nH]cc(CCN)c2c1` [5-methoxytryptamine], the 5HT1B receptor in assay [4] (agonist, relative to 1 µM 5-HT) amounted to 7.2 ± 1.4%.
